# Test results published in publication PMC10511043 (Cell Structure and Function, 2020).
# Target: LCMV Z protein (Zabton-3 / Zabton FRET biosensor, trimeric tandem Z) (Lymphocytic choriomeningitis virus (strain Armstrong), UniProt P18541)
# Sequence (P18541 whole entry, looked up): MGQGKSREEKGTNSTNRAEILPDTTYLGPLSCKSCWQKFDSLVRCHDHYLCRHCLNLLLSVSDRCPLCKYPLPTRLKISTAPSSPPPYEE
smiles,measurement,value
"Nc1nc(N)c2c3c(sc2n1)CN(Cc1ccccc1)CC3 [#4, 5,6,7,8-tetrahydro-7-(benzyl)-pyrido[4',3':4,5]thieno[2,3-d]pyrimidin-2,4-diamine]",decrease of FRET/CFP emission ratio,both of them decreased the FRET ratio in a concentration-dependent manner
